Laboratory results: ChEMBL document CHEMBL1127134, “Synthesis and antibacterial activity of (1R,5R,6R)-2-tert-butyl-6-(1-hydroxyethyl)oxapenem-3-carboxylic acid” (1993)

Legend:
Format in all cases: functional
Pseudomonas aeruginosa [1] = assay: Minimum inhibitory concentration required for the antibacterial activity against Pseudomonas aeruginosa F41
Providencia rettgeri = assay: Minimum inhibitory concentration required for the antibacterial activity against Proteus rettgeri 1007
Serratia [2] = assay: Minimum inhibitory concentration required for the antibacterial activity against Serratia 16002
Staphylococcus aureus [3] = assay: Minimum inhibitory concentration required for the antibacterial activity against Staphylococcus aureus 21b Belgium
Staphylococcus aureus [4] = assay: Minimum inhibitory concentration required for the antibacterial activity against Staphylococcus aureus 25463
Clostridium perfringens [5] = assay: Minimum inhibitory concentration required for the antibacterial activity against Clostridium perfringens 24072
Escherichia coli [6] = assay: Minimum inhibitory concentration required for the antibacterial activity against Escherichia coli 4322
Klebsiella [7] = assay: Minimum inhibitory concentration required for the antibacterial activity against Klebsiella 6097
[8] = tested on: Parabacteroides distasonis; assay: Minimum inhibitory concentration required for the antibacterial activity against Bacillus distasonis Heidelberg
Bacteroides fragilis [9] = assay: Minimum inhibitory concentration required for the antibacterial activity against Bacillus fragilis Kr II
Micrococcus luteus = assay: Minimum inhibitory concentration required for the antibacterial activity against Micrococcus luteus
[10] = tested on: Bacteroides thetaiotaomicron; assay: Minimum inhibitory concentration required for the antibacterial activity against Bacillus thetaiotaomicron 235 Munchen
Enterococcus faecalis = assay: Minimum inhibitory concentration required for the antibacterial activity against Streptococcus faecalis 27101
Escherichia coli [11] = assay: Minimum inhibitory concentration required for the antibacterial activity against Escherichia coli C165
Escherichia coli [12] = assay: Minimum inhibitory concentration required for the antibacterial activity against Escherichia coli F14
Escherichia coli [13] = assay: Minimum inhibitory concentration required for the antibacterial activity against Escherichia coli 183/58
Bacteroides fragilis [14] = assay: Minimum inhibitory concentration required for the antibacterial activity against Bacillus fragilis 06688
Streptococcus pneumoniae = assay: Minimum inhibitory concentration required for the antibacterial activity against Streptococcus pneumoniae 4959
Clostridium perfringens [15] = assay: Minimum inhibitory concentration required for the antibacterial activity against Clostridium perfringens 24071
Serratia [16] = assay: Minimum inhibitory concentration required for the antibacterial activity against Serratia 16001
Proteus vulgaris [17] = assay: Minimum inhibitory concentration required for the antibacterial activity against Proteus vulgaris N6
Staphylococcus aureus [18] = assay: Minimum inhibitory concentration required for the antibacterial activity against Staphylococcus aureus 25455
[19] = tested on: Prevotella melaninogenica; assay: Minimum inhibitory concentration required for the antibacterial activity against Bacillus melaninogenicus Heidelberg
Staphylococcus aureus [20] = assay: Minimum inhibitory concentration required for the antibacterial activity against Staphylococcus aureus 25697
Staphylococcus aureus [21] = assay: Minimum inhibitory concentration required for the antibacterial activity against Staphylococcus aureus 90 Innsbruck
Staphylococcus = assay: Minimum inhibitory concentration required for the antibacterial activity against Staphylococcus E 25485
Staphylococcus aureus [22] = assay: Minimum inhibitory concentration required for the antibacterial activity against Staphylococcus aureus 133
Staphylococcus aureus [23] = assay: Minimum inhibitory concentration required for the antibacterial activity against Staphylococcus aureus 25470
Pseudomonas aeruginosa [24] = assay: Minimum inhibitory concentration required for the antibacterial activity against Pseudomonas aeruginosa Walter
Escherichia coli [25] = assay: Minimum inhibitory concentration required for the antibacterial activity against Escherichia coli T A261
Bacteroides ovatus = assay: Minimum inhibitory concentration required for the antibacterial activity against Bacillus ovatus Heidelberg 32
Staphylococcus aureus [26] = assay: Minimum inhibitory concentration required for the antibacterial activity against Staphylococcus aureus 4978 Israel
Bacteroides fragilis [27] = assay: Minimum inhibitory concentration required for the antibacterial activity against Bacillus fragilis DSM 2151
Escherichia coli [28] = assay: Minimum inhibitory concentration required for the antibacterial activity against Escherichia coli T7
Phocaeicola vulgatus = assay: Minimum inhibitory concentration required for the antibacterial activity against Bacillus valgatus Kr III
Staphylococcus aureus [29] = assay: Minimum inhibitory concentration required for the antibacterial activity against Staphylococcus aureus 79B Innsbruck
Bacteroides fragilis [30] = assay: Minimum inhibitory concentration required for the antibacterial activity against Bacillus fragilis ES 25
Staphylococcus aureus [31] = assay: Minimum inhibitory concentration required for the antibacterial activity against Staphylococcus aureus 25768
Thomasclavelia ramosa = assay: Minimum inhibitory concentration required for the antibacterial activity against Clostridium ramosum DSM 1402
Pseudomonas aeruginosa [32] = assay: Minimum inhibitory concentration required for the antibacterial activity against Pseudomonas aeruginosa 7451
Bacteroides fragilis [33] = assay: Minimum inhibitory concentration required for the antibacterial activity against Bacillus fragilis 010848
Staphylococcus aureus [34] = assay: Minimum inhibitory concentration required for the antibacterial activity against Staphylococcus aureus 1756
[35] = tested on: Prevotella melaninogenica; assay: Minimum inhibitory concentration required for the antibacterial activity against Bacillus melaninogenicus Kr
Bacteroides fragilis [36] = assay: Minimum inhibitory concentration required for the antibacterial activity against Bacillus fragilis 4661 Kr
Morganella morganii = assay: Minimum inhibitory concentration required for the antibacterial activity against Proteus Morganii 932
[37] = tested on: Peptostreptococcus anaerobius; assay: Minimum inhibitory concentration required for the antibacterial activity against Peptostrept. anaer. DSM 20357
[38] = tested on: Peptostreptococcus anaerobius; assay: Minimum inhibitory concentration required for the antibacterial activity against Peptostrept. anaer. Kr II
Staphylococcus aureus [39] = assay: Minimum inhibitory concentration required for the antibacterial activity against Staphylococcus aureus 41h Belgium
Clostridium perfringens [40] = assay: Minimum inhibitory concentration required for the antibacterial activity against Clostridium perfringens 1024027
Klebsiella [41] = assay: Minimum inhibitory concentration required for the antibacterial activity against Klebsiella 1852
Staphylococcus aureus [42] = assay: Minimum inhibitory concentration required for the antibacterial activity against Staphylococcus aureus 25464
Providencia sp. = assay: Minimum inhibitory concentration required for the antibacterial activity against Providencia 12012
Proteus vulgaris [43] = assay: Minimum inhibitory concentration required for the antibacterial activity against Proteus vulgaris 9023
Staphylococcus aureus [44] = assay: Minimum inhibitory concentration required for the antibacterial activity against Staphylococcus aureus 17N Munchen
[45] = tested on: Bacteroides thetaiotaomicron; assay: Minimum inhibitory concentration required for the antibacterial activity against Bacillus thetaiotaomicron DSM 2079
Pseudomonas aeruginosa [46] = assay: Minimum inhibitory concentration required for the antibacterial activity against Pseudomonas aeruginosa 7053
Enterobacter cloacae [47] = assay: Minimum inhibitory concentration required for the antibacterial activity against Enterobacter cloacae 5744
Staphylococcus aureus [48] = assay: Minimum inhibitory concentration required for the antibacterial activity against Staphylococcus aureus 25085
Bacteroides fragilis [49] = assay: Minimum inhibitory concentration required for the antibacterial activity against Bacillus fragilis 4891/91 Kr
Klebsiella [50] = assay: Minimum inhibitory concentration required for the antibacterial activity against Klebsiella 57USA
Staphylococcus aureus [51] = assay: Minimum inhibitory concentration required for the antibacterial activity against Staphylococcus aureus 48N Munchen
Escherichia coli [52] = assay: Minimum inhibitory concentration required for the antibacterial activity against Escherichia coli Neumann
[53] = tested on: Peptostreptococcus anaerobius; assay: Minimum inhibitory concentration required for the antibacterial activity against Peptostrept. anaer. Kr I
[54] = tested on: Parabacteroides distasonis; assay: Minimum inhibitory concentration required for the antibacterial activity against Bacillus distasonis Kr
Proteus vulgaris [55] = assay: Minimum inhibitory concentration required for the antibacterial activity against Proteus vulgaris 1017
Enterobacter cloacae [56] = assay: Minimum inhibitory concentration required for the antibacterial activity against Enterobacter cloacae 56 US
[57] = tested on: Fusobacterium necrophorum; assay: Minimum inhibitory concentration required for the antibacterial activity against Sphaerophorus necrophorus Kr

C[C@@H](O)[C@H]1C(=O)N2C(C(=O)[O-])=C(C(C)(C)C)O[C@H]12.[K+]
MIC (Pseudomonas aeruginosa [1]): > 128 µg/mL
MIC (Providencia rettgeri): 2 µg/mL
MIC (Serratia [2]): 64 µg/mL
MIC (Staphylococcus aureus [3]): 12.5 µg/mL
MIC (Staphylococcus aureus [4]): 1.56 µg/mL
MIC (Clostridium perfringens [5]): 0.5 µg/mL
MIC (Escherichia coli [6]): 2 µg/mL
MIC (Klebsiella [7]): 16 µg/mL
MIC [8]: 8 µg/mL
MIC (Bacteroides fragilis [9]): 2 µg/mL
MIC (Micrococcus luteus): ≤ 0.06 µg/mL
MIC [10]: 4 µg/mL
MIC (Enterococcus faecalis): 2 µg/mL
MIC (Escherichia coli [11]): 8 µg/mL
MIC (Escherichia coli [12]): 16 µg/mL
MIC (Escherichia coli [13]): 1 µg/mL
MIC (Bacteroides fragilis [14]): 2 µg/mL
MIC (Streptococcus pneumoniae): 0.25 µg/mL
MIC (Clostridium perfringens [15]): 0.5 µg/mL
MIC (Serratia [16]): 64 µg/mL
MIC (Proteus vulgaris [17]): 1 µg/mL
MIC (Staphylococcus aureus [18]): 0.12 µg/mL
MIC [19]: 4 µg/mL
MIC (Staphylococcus aureus [20]): 1.56 µg/mL
MIC (Staphylococcus aureus [21]): ≤ 0.78 µg/mL
MIC (Staphylococcus): ≤ 0.06 µg/mL
MIC (Staphylococcus aureus [22]): 0.12 µg/mL
MIC (Staphylococcus aureus [23]): 50 µg/mL
MIC (Pseudomonas aeruginosa [24]): > 128 µg/mL
MIC (Escherichia coli [25]): 2 µg/mL
MIC (Bacteroides ovatus): 2 µg/mL
MIC (Staphylococcus aureus [26]): ≤ 0.78 µg/mL
MIC (Bacteroides fragilis [27]): 1 µg/mL
MIC (Escherichia coli [28]): 2 µg/mL
MIC (Phocaeicola vulgatus): 1 µg/mL
MIC (Staphylococcus aureus [29]): ≤ 0.78 µg/mL
MIC (Bacteroides fragilis [30]): 2 µg/mL
MIC (Staphylococcus aureus [31]): ≤ 0.78 µg/mL
MIC (Thomasclavelia ramosa): 1 µg/mL
MIC (Pseudomonas aeruginosa [32]): > 128 µg/mL
MIC (Bacteroides fragilis [33]): 2 µg/mL
MIC (Staphylococcus aureus [34]): 2 µg/mL
MIC (Staphylococcus aureus [34]; Staphylococcus aureus, read-out: MIC): 1.56 µg/mL
MIC [35]: 0.5 µg/mL
MIC (Bacteroides fragilis [36]): 2 µg/mL
MIC (Morganella morganii): 2 µg/mL
MIC [37]: 1 µg/mL
MIC [38]: 0.25 µg/mL
MIC (Staphylococcus aureus [39]): 12.5 µg/mL
MIC (Clostridium perfringens [40]): 1 µg/mL
MIC (Klebsiella [41]): 16 µg/mL
MIC (Staphylococcus aureus [42]): 3.12 µg/mL
MIC (Providencia sp.): 4 µg/mL
MIC (Proteus vulgaris [43]): 1 µg/mL
MIC (Staphylococcus aureus [44]): 1.56 µg/mL
MIC [45]: 1 µg/mL
MIC (Pseudomonas aeruginosa [46]): > 128 µg/mL
MIC (Enterobacter cloacae [47]): 32 µg/mL
MIC (Staphylococcus aureus [48]): 1.56 µg/mL
MIC (Bacteroides fragilis [49]): 2 µg/mL
MIC (Klebsiella [50]): 4 µg/mL
MIC (Staphylococcus aureus [51]): ≤ 0.78 µg/mL
MIC (Escherichia coli [52]): 2 µg/mL
MIC [53]: 2 µg/mL
MIC [54]: 1 µg/mL
MIC (Proteus vulgaris [55]): 1 µg/mL
MIC (Enterobacter cloacae [56]): 16 µg/mL
MIC [57]: 1 µg/mL
